This note sets out measurements from publication PMC9655717, “New Molecules of Diterpene Origin with Inhibitory Properties toward α-Glucosidase” (International Journal of Molecular Sciences, 2022).

Broadly, the IC50 is the concentration that inhibits the measured activity by half.

The target in the first assay is T1, yeast α-GLy (α-glucosidase, Sigma G0660) (Saccharomyces cerevisiae, UniProt P53341).
T1 construct: purchased Sigma G0660
T1 sequence (P53341 whole entry): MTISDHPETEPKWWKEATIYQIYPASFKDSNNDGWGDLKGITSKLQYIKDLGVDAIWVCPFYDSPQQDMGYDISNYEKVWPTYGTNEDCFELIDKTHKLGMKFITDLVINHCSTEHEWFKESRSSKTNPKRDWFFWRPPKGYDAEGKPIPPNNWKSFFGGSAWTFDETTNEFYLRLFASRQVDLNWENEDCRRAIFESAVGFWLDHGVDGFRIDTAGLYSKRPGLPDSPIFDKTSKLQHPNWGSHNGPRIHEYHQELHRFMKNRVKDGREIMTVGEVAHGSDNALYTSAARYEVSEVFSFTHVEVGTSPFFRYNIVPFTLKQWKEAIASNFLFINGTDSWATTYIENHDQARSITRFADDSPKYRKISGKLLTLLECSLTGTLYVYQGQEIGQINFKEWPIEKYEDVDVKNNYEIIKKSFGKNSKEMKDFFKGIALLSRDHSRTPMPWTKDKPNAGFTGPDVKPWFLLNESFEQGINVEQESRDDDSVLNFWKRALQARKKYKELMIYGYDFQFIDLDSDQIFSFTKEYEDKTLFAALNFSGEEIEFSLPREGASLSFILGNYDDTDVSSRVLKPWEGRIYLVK
Description: biochemical. Format: biochemical. The note with it: IC50 ± SE, α-glucosidase inhibition, yeast α-glucosidase, 37°C, pH 6.8. Here is the method: S1. Materials and Methods […]
glucosidase inhibition assay. α-Glucosidase enzyme inhibition assay was carried out in a 96-well microplate. The method’s principle based on the hydrolyzed reaction of 4-nitrophenyl-α-D-glucopiranoside with α-glucosidase enzyme into yellow 4- […]
p-Nitrophenyl α-D-Glucoside a- Gl ucosidas e α-D-Glucose + p- Nitrophenol α-Glucosidase inhibitory activity assay was performed following the modified method of Pistia Brueggeman and Hollingsworth with slight modification. Quinopimaric […]
concentrations of 256, 64, 16, 4 and 1 µg/mL. In a 96-well plate, a reaction mixture containing 20 μL of phosphate buffer (100 mM; pH 6.8), 20 μL of α-glucosidase (0.3 U/mL, Sigma G0660) (this concentration was determined by a series of α-glucosidase […]
linearity between the enzyme concentration and the absorbance of yellow color mixture after reaction which was approximately 5-fold higher than the back ground and at least […]
concentrations was pre-incubated for 10 min at 37°C. Then 20 μL of […] p-nitrophenyl α-D-glucopyranoside (Sigma N1377) was added to the mixture as a substrate. After further incubation at 37°C for 30 min, the reaction was stopped by adding 80 μL of 0.1 […]
solution were prepared using the phosphate buffer […]; pH 6.8. […]
as a positive control and water as negative control. The yellow color produced was quantitated by colorimetric analysis and reading the absorbance at 410 nm. Each experiment was performed in triplicates, along with appropriate blanks. The solvent DMSO was use as negative control to evaluate its effect on α-glucosidase activity. […]
or substrate in negative control. Back ground was determined by volume of buffer as […]
The % inhibition has been obtained using the formula:
% inhibition = {Absorbance (control) –Absorbance (sample)}/Absorbance (control) IC50 value is defined as the concentration of samples inhibiting 50% of α-glucosidase activity under the stated assay conditions. […]
Consider `CC(C)C1=C[C@@]23CC[C@H]4[C@](C)(CO)CCC[C@]4(C)[C@H]2C[C@@H]1[C@@H]1[C@H]3[C@@H](O)CC[C@@H]1O` [Compound 2], for which the IC50 is greater than 255 µM.

Take `COC(=O)[C@]1(C)CCC[C@]2(C)[C@H]3C[C@@H]4[C@H]5[C@@H]6CC7NC(=S)NC7[C@H]5[C@@]3(CC[C@H]21)C[C@@]4(C(C)C)O6` (some centres unmarked) [Compound 32]: half-maximal inhibition (IC50) required 9.66 ± 0.77 µM.

The compound `COC(=O)[C@]1(C)CCC[C@]2(C)[C@H]3C[C@H]4C(C(C)C)=C[C@]3(CC[C@H]21)[C@@H]1c2[nH]c3ccccc3c2-c2c([nH]c3ccccc23)[C@@H]14` [Compound 34] gave an IC50 greater than 255 µM.

`COC(=O)[C@]1(C)CCC[C@]2(C)[C@H]3C[C@H]4C(C(C)C)=C[C@]3(CC[C@H]21)[C@H]1[C@@H]4[C@@H](OCCC(N)=NO)CC[C@@H]1OCCC(N)=NO` [Compound 23] gave a half-maximal inhibitory concentration (IC50) greater than 255 µM.

`COC(=O)[C@]1(C)CCC[C@]2(C)[C@H]3C[C@@H]4[C@H]5[C@@H]6CCC(=O)[C@H]5[C@@]3(CC[C@H]21)C[C@@]4(C(C)C)O6` [Compound 3, 1β,13α-epoxy methyldihydroquinopimarate]: the IC50 was greater than 255 µM.

With `COC(=O)[C@]1(C)CCC[C@]2(C)[C@H]3C[C@@H]4[C@H]5[C@@H]6CCC(=NOCCC#N)[C@H]5[C@@]3(CC[C@H]21)C[C@@]4(C(C)C)O6` [Compound 5], the half-inhibitory concentration (IC50) is greater than 255 µM.

For `COC(=O)[C@]1(C)CCC[C@]2(C)[C@H]3C[C@H]4C(C(C)C)=C[C@]3(CC[C@H]21)[C@H]1[C@@H]4[C@@H](OC(=O)c2cccnc2)CC[C@@H]1OC(=O)c1cccnc1` [Compound 24], the IC50 is greater than 255 µM.

In turn, `COC(=O)C(CCSC)NC(=O)[C@]1(C)CCC[C@]2(C)[C@H]3C[C@H]4C(C(C)C)=C[C@]3(CC[C@H]21)[C@@H]1C(=O)CCC(=O)[C@@H]14` (some centres unmarked) [Compound 13] displayed an IC50 greater than 255 µM.

`C#CCNC(=O)[C@]1(C)CCC[C@]2(C)[C@H]3C[C@H]4C(C(C)C)=C[C@]3(CC[C@H]21)[C@@H]1C(=O)CCC(=O)[C@@H]14` [Compound 10] returned an IC50 greater than 255 µM.

For the compound `COC(=O)[C@]1(C)CCC[C@]2(C)[C@H]3C[C@H]4C(C(C)C)=C[C@]3(CC[C@H]21)[C@@H]1C(=O)CC[C@H](O)[C@@H]14` [Compound 14], the IC50 is greater than 255 µM.

For the compound `COC(=O)C(C)NC(=O)[C@]1(C)CCC[C@]2(C)[C@H]3C[C@H]4C(C(C)C)=C[C@]3(CC[C@H]21)[C@@H]1C(=O)CCC(=O)[C@@H]14` (some centres unmarked) [Compound 12], the IC50 was greater than 255 µM.

Regarding `COC(=O)[C@]1(C)CCC[C@]2(C)[C@H]3C[C@H]4C(C(C)C)=C[C@]3(CC[C@H]21)[C@H]1[C@@H]4[C@@H](OCCC#N)CC[C@@H]1OCCC#N` [Compound 22], the half-maximal inhibitory concentration (IC50) is greater than 255 µM.

The compound `CCOC(=O)c1c(C)[nH]c2c3c(c(O)cc12)[C@H]1C[C@@H]2[C@@]4(C)CCC[C@@](C)(C(=O)OC)[C@@H]4CC[C@@]32C=C1C(C)C` [Compound 43, Methyl 1-Hydroxy-13-Isopropyl-1′-(Ethoxycarbonyl)-7,10a,2′-Trimethyl-5,6,6b,7,8,9,10,10a,10b,11,12,13-Dodecahydro-12,4b-Ethenophenanthro-[2,1-g]indole-7-Carboxylate] yielded an IC50 greater than 255 µM.

`CC(C)C1=C[C@@]23CC[C@@H]4[C@](C)(CCC[C@@]4(C)C(=O)O)[C@H]2C[C@@H]1[C@H]1C(=O)CCC(=O)[C@H]13` [Compound 8, 2,3-dihydroquinopimaric acid] displayed an IC50 of 35.6 ± 0.92 µM.

As for `COC(=O)[C@]1(C)CCC[C@]2(C)[C@H]3C[C@@H]4[C@H]5[C@@H]6CC(Br)C(=O)[C@H]5[C@@]3(CC[C@H]21)C[C@@]4(C(C)C)O6` (some centres unmarked) [Compound 25], the concentration for half-maximal inhibition (IC50) was greater than 255 µM.

In turn, `COC(=O)[C@]1(C)CCC[C@]2(C)[C@H]3C[C@H]4C(C(C)C)=C[C@]3(CC[C@H]21)[C@@H]1C(=O)CC[C@H](OC(=O)CCCC(=O)O)[C@@H]14` [Compound 18] displayed an IC50 greater than 255 µM.

The compound `COC(=O)[C@]1(C)CCC[C@]2(C)[C@H]3C[C@H]4C(C(C)C)=C[C@]3(CC[C@H]21)[C@@H]1C(=O)CC[C@H](OC(C)=O)[C@@H]14` [Compound 15] gave a half-maximal inhibitory concentration (IC50) greater than 255 µM.

In the case of `CC(C)C1=CC23CCC4C(C)(C(=O)O)CCCC4(C)C2CC1C1=C3C(=O)C=CC1=O` (centres unmarked) [Compound 40, 1a,4a-dehydroquinopimaric acid], half-maximal inhibition (IC50) required 7.09 ± 0.12 µM.

Compound `COC(=O)[C@]1(C)CCC[C@]2(C)[C@H]3C[C@H]4C(C(C)C)=C[C@]3(CC[C@H]21)[C@@H]1C(=O)CC[C@H](OC(=O)c2cccnc2)[C@@H]14` [Compound 19] returned an IC50 greater than 255 µM.

Compound `COC(=O)[C@]1(C)CCC[C@]2(C)[C@H]3C[C@H]4C(C(C)C)=C[C@]3(CC[C@H]21)[C@@H]1C(=O)CC[C@H](OCCC#N)[C@@H]14` [Compound 16] came in with a 50% inhibitory concentration (IC50) greater than 255 µM.

Turning to `COC(=O)[C@]1(C)CCC[C@]2(C)[C@H]3C[C@H]4C(C(C)C)=C[C@]3(CC[C@H]21)[C@H]1[C@@H]4[C@@H](O)CC[C@@H]1O` [Compound 21], the half-inhibitory concentration (IC50) is greater than 255 µM.

The compound `CC(C)C1=C[C@@]23CC[C@@H]4[C@](C)(CCC[C@@]4(C)C(=O)O)[C@H]2C[C@@H]1[C@H]1C(=O)C=CC(=O)[C@H]13` [Compound 1, quinopimaric acid] gave an IC50 of 59.59 ± 0.18 µM.

Consider `COC(=O)[C@]1(C)CCC[C@@]2(C)[C@H]1CC[C@]13C=C(C(C)C)[C@H](C[C@H]21)C1=C3C(=O)C=CC1=O` [Compound 41, 1a,4a-dehydroquinopimaric acid methyl ester], for which the IC50 was greater than 255 µM.

For the compound `COC(=O)[C@]1(C)CCC[C@]2(C)[C@H]3C[C@H]4C(C(C)C)=C[C@]3(CC[C@H]21)[C@@H]1C(=O)CC[C@H](OC(=O)CCC(=O)O)[C@@H]14` [Compound 17], the IC50 is greater than 255 µM.

Regarding `COC(=O)[C@]1(C)CCC[C@]2(C)[C@H]3C[C@@H]4[C@H]5[C@@H]6CCC(=O)N[C@H]5[C@@]3(CC[C@H]21)C[C@@]4(C(C)C)O6` [Compound 39], the IC50 came to 44.8 ± 0.96 µM.

The compound `COC(=O)[C@]1(C)CCC[C@]2(C)[C@H]3C[C@@H]4[C@H]5[C@@H]6Cc7cn[nH]c7[C@H]5[C@@]3(CC[C@H]21)C[C@@]4(C(C)C)O6` [Compound 31] came in with an IC50 greater than 255 µM.

With `COC(=O)[C@]1(C)CCC[C@]2(C)[C@H]3C[C@H]4C(C(C)C)=C[C@]3(CC[C@H]21)[C@@H]1C(=O)CC[C@H](OC(=O)c2ccccc2C(=O)O)[C@@H]14` [Compound 20], the IC50 is greater than 255 µM.

The same assay, now with this note: ratio of α-GLy IC50 values versus acarbose.
In the case of `CC(C)C1=C[C@@]23CC[C@@H]4[C@](C)(CCC[C@@]4(C)C(=O)O)[C@H]2C[C@@H]1[C@H]1C(=O)C=CC(=O)[C@H]13` [Compound 1, quinopimaric acid], the “times more active (potent) than acarbose” value is on record as “three times higher”.

The same assay, now with this note: yeast α-glucosidase, 37°C, pH 6.8; read-out: IC50 ± SE, α-glucosidase inhibition.
As for `COC(=O)c1c(C)[nH]c2c3c(c(O)cc12)[C@H]1C[C@@H]2[C@@]4(C)CCC[C@@](C)(C(=O)OC)[C@@H]4CC[C@@]32C=C1C(C)C` [Compound 36], the IC50 came out at 8.94 ± 0.96 µM.

In the case of `COC(=O)[C@]1(C)CCC[C@]2(C)[C@H]3C[C@H]4C(C(C)C)=C[C@]3(CC[C@H]21)[C@@H]1C(=O)C(=Cc2ccco2)C[C@H](O)[C@@H]14` [Compound 7], the IC50 stood at 2.5 ± 0.011 µM.

As for `COC(=O)[C@]1(C)CCC[C@]2(C)[C@H]3C[C@@H]4[C@H]5[C@@H]6CC(=Cc7cccnc7)C(=O)[C@H]5[C@@]3(CC[C@H]21)C[C@@]4(C(C)C)O6` [Compound 30], the IC50 came out at 38.8 ± 0.33 µM.

Turning to `COC(=O)[C@]1(C)CCC[C@]2(C)[C@H]3C[C@@H]4[C@H]5[C@@H]6CC(=Cc7ccc(OC)c(OC)c7)C(=O)[C@H]5[C@@]3(CC[C@H]21)C[C@@]4(C(C)C)O6` [Compound 28], the IC50 is 12.7 ± 0.21 µM.

In the case of `COC(=O)[C@]1(C)CCC[C@]2(C)[C@H]3C[C@@H]4[C@H]5[C@@H]6CC(=Cc7ccco7)C(=O)[C@H]5[C@@]3(CC[C@H]21)C[C@@]4(C(C)C)O6` [Compound 29], the IC50 is 1.63 ± 0.041 µM.

For `COC(=O)c1c(C)[nH]c2c3c(c(OC(C)=O)cc12)[C@H]1C[C@@H]2[C@@]4(C)CCC[C@@](C)(C(=O)OC)[C@@H]4CC[C@@]32C=C1C(C)C` [Compound 37], the IC50 is 7.28 ± 0.4 µM.

Consider `COC(=O)[C@]1(C)CCC[C@]2(C)[C@H]3C[C@@H]4[C@H]5[C@@H]6CC(=Cc7ccccc7)C(=O)[C@H]5[C@@]3(CC[C@H]21)C[C@@]4(C(C)C)O6` [Compound 26], for which the IC50 was 13.08 ± 0.01 µM.

In the case of `COC(=O)c1c(C)[nH]c2c3c(c(O)cc12)[C@H]1C[C@@H]2[C@@]4(C)CCC[C@@](C)(C(=O)O)[C@@H]4CC[C@@]32C=C1C(C)C` [Compound 35], the concentration for half-maximal inhibition (IC50) came to 7.95 ± 0.2 µM.

Take `COC(=O)[C@]1(C)CCC[C@]2(C)[C@H]3C[C@@H]4[C@H]5[C@@H]6CC(=Cc7ccc(OC)cc7)C(=O)[C@H]5[C@@]3(CC[C@H]21)C[C@@]4(C(C)C)O6` [Compound 27]: the concentration for half-maximal inhibition (IC50) is greater than 255 µM.

As for `CC(C)C1=C[C@@]23CC[C@@H]4[C@](C)(CCC[C@@]4(C)C(=O)NCCCCNCCCN)[C@H]2C[C@@H]1[C@H]1C(=O)CCC(=O)[C@H]13` [Compound 9], the IC50 amounted to 35.2 ± 0.71 µM.
